According to ChEMBL document CHEMBL4699654, “Computational Fragment-Based Design Facilitates Discovery of Potent and Selective Monoamine Oxidase-B (MAO-B) Inhibitor” (J Med Chem, 2020):

Tests used:
Homo sapiens = species: Homo sapiens; assay: Selectivity index, ratio of IC50 for recombinant human MAO-A to IC50 for recombinant human MAO-B
[1] = biological target: T1, Amine oxidase [flavin-containing] B (Homo sapiens, UniProt P27338); assay: Inhibition of recombinant human MAO-B expressed in Sf9 cells using benzylamine as substrate preincubated for 15 mins followed by substrate addition for 60 mins by Luminex assay; assay type: cell-based
T1 sequence (P27338 whole entry): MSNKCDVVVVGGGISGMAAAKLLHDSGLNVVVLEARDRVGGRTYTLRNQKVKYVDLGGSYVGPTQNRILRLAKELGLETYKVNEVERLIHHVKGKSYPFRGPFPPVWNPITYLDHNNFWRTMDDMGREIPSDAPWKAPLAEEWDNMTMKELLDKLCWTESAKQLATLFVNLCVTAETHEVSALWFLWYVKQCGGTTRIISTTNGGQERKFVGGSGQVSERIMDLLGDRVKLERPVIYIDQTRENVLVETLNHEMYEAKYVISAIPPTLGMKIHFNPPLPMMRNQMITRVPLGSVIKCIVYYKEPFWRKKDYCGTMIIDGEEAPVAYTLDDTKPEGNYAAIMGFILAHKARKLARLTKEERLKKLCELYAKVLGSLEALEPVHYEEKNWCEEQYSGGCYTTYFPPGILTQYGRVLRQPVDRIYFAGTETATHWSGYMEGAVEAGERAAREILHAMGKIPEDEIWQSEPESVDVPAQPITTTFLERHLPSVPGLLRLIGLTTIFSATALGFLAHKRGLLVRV

[2] = biological target: T2, Amine oxidase [flavin-containing] A (Homo sapiens, UniProt P21397); assay: Inhibition of recombinant human MAO-A expressed in Sf9 cells using p-tyramine as substrate preincubated for 15 mins followed by substrate addition for 60 mins by […] assay
T2 sequence (P21397 whole entry): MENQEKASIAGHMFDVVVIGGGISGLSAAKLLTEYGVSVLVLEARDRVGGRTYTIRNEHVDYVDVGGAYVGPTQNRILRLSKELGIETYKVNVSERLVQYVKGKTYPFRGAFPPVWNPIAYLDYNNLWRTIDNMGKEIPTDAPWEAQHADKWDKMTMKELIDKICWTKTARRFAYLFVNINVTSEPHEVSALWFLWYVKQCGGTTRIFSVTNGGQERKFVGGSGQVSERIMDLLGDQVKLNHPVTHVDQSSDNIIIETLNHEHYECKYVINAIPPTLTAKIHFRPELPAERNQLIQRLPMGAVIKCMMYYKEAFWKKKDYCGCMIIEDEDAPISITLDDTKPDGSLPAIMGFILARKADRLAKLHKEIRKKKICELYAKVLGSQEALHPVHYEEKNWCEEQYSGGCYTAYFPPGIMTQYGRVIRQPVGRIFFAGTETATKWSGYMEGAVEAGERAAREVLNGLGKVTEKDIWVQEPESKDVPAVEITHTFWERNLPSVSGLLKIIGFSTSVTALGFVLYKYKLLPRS

Structure (SMILES) | Ratio IC50 (Homo sapiens) | IC50 [1] | IC50 [2]
C#CCN(Cc1ccc(OCc2cccc(F)c2)cc1Cl)[C@@H](C)C(N)=O | 82 | 0.068 µM | 5.59 µM
NC(=O)[C@@H]1COCCN1Cc1ccc(OCc2cccc(F)c2)cc1 | – | 5.41 µM | –
NC(=O)C1CCN1Cc1ccc(OCc2cccc(F)c2)cc1 (racemic) | 391 | 0.046 µM | 18 µM
Cc1cc(OCc2cccc(F)c2)ccc1CN1CC[C@H]1C(N)=O | 34 | 0.258 µM | 8.65 µM
NC(=O)[C@@H]1COCCN1Cc1ccc(OCc2cccc(F)c2)cc1F | 20 | 2.87 µM | 57.6 µM
CC1(C)C[C@@H](C(N)=O)N(Cc2ccc(OCc3cccc(F)c3)cc2)C1 | 12 | 1.42 µM | 17.5 µM
C[C@H](NCc1ccc(OCc2cccc(F)c2)cc1)C(=O)NCCN1CCOCC1 | – | > 10 µM | –
C#CCN(C)C(=O)[C@H](C)NCc1ccc(OCc2cccc(F)c2)cc1 | – | > 10 µM | –
C#CCN(Cc1ccc(OCc2cccc(F)c2)cc1)[C@@H](C)C(N)=O | 15 | 0.53 µM | 7.79 µM
NC(=O)[C@@H]1CCN1Cc1ccc(OCc2cccc(F)c2)cc1 | 1280 | 0.021 µM | 26.8 µM
NC(=O)[C@@H]1CCCN1Cc1ccc(OCc2cccc(F)c2)cc1 | 168 | 0.204 µM | 34.2 µM
NC(=O)[C@@H]1CCN1Cc1ccc(OCc2cccc(F)c2)cc1F | 715 | 0.026 µM | 18.6 µM
NC(=O)[C@@H]1CCN1Cc1ccc(OCc2cccc(F)c2)cc1Cl | 61 | 0.035 µM | 2.13 µM
C#CCN(Cc1ccc(OCc2cccc(F)c2)cc1F)[C@@H](C)C(N)=O | 94 | 0.093 µM | 8.71 µM
C#CCN(Cc1ccc(OCc2cccc(F)c2)cc1C)[C@@H](C)C(N)=O | 20 | 0.32 µM | 6.4 µM
C[C@H](NCc1ccc(OCc2cccc(F)c2)cc1F)C(N)=O | > 163 | 0.061 µM | > 10 µM
NC(=O)C1CN(Cc2ccc(OCc3cccc(F)c3)cc2)C1 | > 7 | 1.42 µM | > 10 µM
C[C@H](NCc1ccc(OCc2cccc(F)c2)cc1Cl)C(N)=O | 427 | 0.028 µM | 12 µM
NC(=O)[C@@H]1CC(F)(F)CN1Cc1ccc(OCc2cccc(F)c2)cc1 | 14 | 1.07 µM | 14.5 µM
Cc1cc(OCc2cccc(F)c2)ccc1CN[C@@H](C)C(N)=O | > 140 | 0.069 µM | > 10 µM
CC1(C)C[C@@H](C(N)=O)N(Cc2ccc(OCc3cccc(F)c3)cc2F)C1 | – | 6.35 µM | –
C[C@H](NCc1ccc(OCc2cccc(F)c2)cc1C1CC1)C(N)=O | 45 | 1.66 µM | 75.2 µM
